Assay [1] has as its system MT4. The assay can be described thus: Concentration required to inhibit spread of native HIV-1(NL4-3) protease obtained from PI-resistant clinical isolate in MT-4 human T-lymphoid cells. It counts as functional. Particulars: read-out: CIC95.
Assay [2] concerns the target T1, Human immunodeficiency virus type 1 protease (Human immunodeficiency virus 1, UniProt Q72874). The assay can be described thus: Inhibitory concentration against HIV-1 protease (NL4-3).
Assay [3] relates to MT4. Nature of the assay: Concentration required to inhibit spread of native HIV-1(Q-60) protease obtained from PI-resistant clinical isolate in MT-4 human T-lymphoid cells. In kind it is functional. To be noted: read-out: CIC95.
Assay [4] deals with MT4. The assay can be described thus: Concentration required to inhibit spread of native HIV-1(V18) protease obtained from PI-resistant clinical isolate in MT-4 human T-lymphoid cells. It counts as functional. Particulars: read-out: CIC95.
Assay [5] deals with MT4. The assay can be described thus: Concentration required to inhibit spread of native HIV-1(K-60) protease obtained from PI-resistant clinical isolate in MT-4 human T-lymphoid cells. It counts as functional. Particulars: read-out: CIC95.
The subject of assay [6] is MT4. Nature of the assay: Concentration required to inhibit spread of native HIV-1(4X) protease obtained from PI-resistant clinical isolate in MT-4 human T-lymphoid cells. In kind it is functional. To be noted: read-out: CIC95.
The target in assay [7] is T1, Human immunodeficiency virus type 1 protease. The assay can be described thus: inhibitory concentration against HIV-1 protease from PI-resistant clinical isolate (V18).

Some results are limits rather than exact numbers.

The values below come from ChEMBL document CHEMBL1137832, “P1' oxadiazole protease inhibitors with excellent activity against native and protease inhibitor-resistant HIV-1” (Bioorg Med Chem Lett, 2004).

A word on the IC50: it is the midpoint of a concentration-inhibition curve. The low end stands for higher potency, the high end for lower potency.

In the case of `CCCc1nnc(C[C@H](C[C@H](O)CN2CCN(Cc3ccc(-c4ccc(Cl)cc4)o3)C[C@H]2C(=O)NCC(F)(F)F)C(=O)N[C@H]2CCOC[C@H]2O)o1`, the IC95 in the assay on MT4 [1] is not above 8 nM; in the assay with MT4 [3] it was 16 nM; with MT4 [4] it was 125 nM; in the assay with MT4 [5] it was not above 8 nM; in the assay on MT4 [6] it was 31 nM. Besides, the IC50 in assay [2] is less than 0.01 nM.

Turning to `CCCc1nnc(C[C@H](C[C@H](O)CN2CCN(C(C)(C)c3ncc(-c4cncc(OC)c4)o3)C[C@H]2C(=O)NCC(F)(F)F)C(=O)N[C@H]2CCOC[C@H]2O)o1`, the IC95 in the assay on MT4 [1] was 500 nM; in the assay with MT4 [3] it was 500 nM; in the assay on MT4 [4], less than 1000 nM; with MT4 [5], 500 nM; with MT4 [6] it was 500 nM. This compound showed an IC50 in assay [2] of 0.32 nM.

On to `COc1cncc(-c2cnc(C(C)(C)N3CCN(C[C@@H](O)C[C@@H](Cc4nnco4)C(=O)N[C@H]4CCOC[C@H]4O)[C@H](C(=O)NCC(F)(F)F)C3)o2)c1`, for which the figures for the half-inhibitory concentration (IC50) in assay [2] and in assay [7] were 0.24 nM and 7.4 nM, respectively.

With `O=C(N[C@H]1CCOC[C@H]1O)[C@H](Cc1nnc(-c2ccccc2)o1)C[C@H](O)CN1CCN(Cc2ccc(-c3ccc(Cl)cc3)o2)C[C@H]1C(=O)NCC(F)(F)F`, the IC95 in the assay with MT4 [1] was 15.6 nM; in the assay with MT4 [3], 63 nM; with MT4 [4] it was 250 nM; in the assay on MT4 [5], not above 8 nM; in the assay on MT4 [6] it was 125 nM. In assay [2], the IC50 was determined as 0.01 nM.

For `CC(C)(c1ncc(-c2ccc(F)cc2)o1)N1CCN(C[C@@H](O)C[C@@H](Cc2nnco2)C(=O)N[C@H]2CCOC[C@H]2O)[C@H](C(=O)NCC(F)(F)F)C1`, the IC95 is 125 nM in the assay with MT4 [1]; 31 nM with MT4 [3]; 125 nM in the assay on MT4 [4]; 125 nM with MT4 [5]; 31 nM in the assay with MT4 [6]. The IC50 amounted to 0.02 nM in assay [2] and 0.06 nM in assay [7].

Turning to `CC(C)(c1ncc(-c2ccc(Cl)cc2)o1)N1CCN(C[C@@H](O)C[C@@H](Cc2nnco2)C(=O)N[C@H]2CCOC[C@H]2O)[C@H](C(=O)NCC(F)(F)F)C1`, the IC95 with MT4 [1] was found to be 125 nM; in the assay with MT4 [3], 31 nM; with MT4 [4], 63 nM; with MT4 [5], 63 nM; in the assay on MT4 [6], 31 nM. Further, the IC50 in assay [2] was less than 0.01 nM; in assay [7] it was 0.04 nM.

As for `CC(C)(c1ncc(-c2ccc(F)cc2)o1)N1CCN(C[C@@H](O)C[C@@H](Cc2nnc(-c3ccccc3)o2)C(=O)N[C@H]2CCOC[C@H]2O)[C@H](C(=O)NCC(F)(F)F)C1`, the IC95 in the assay with MT4 [1] is not above 8 nM; in the assay on MT4 [3] it was 16 nM; in the assay on MT4 [4], 63 nM; with MT4 [5], not above 8 nM; with MT4 [6], 16 nM. In assay [2], this compound came in with an IC50 of 0.02 nM.

Turning to `Cc1nnc(C[C@H](C[C@H](O)CN2CCN(C(C)(C)c3ncc(-c4ccc(F)cc4)o3)C[C@H]2C(=O)NCC(F)(F)F)C(=O)N[C@H]2CCOC[C@H]2O)o1`, the IC95 was 125 nM in the assay with MT4 [1]; 31 nM in the assay with MT4 [3]; 63 nM in the assay with MT4 [4]; 125 nM in the assay with MT4 [5]; 31 nM in the assay with MT4 [6]. The half-inhibitory concentration (IC50) in assay [2] came out at 0.02 nM; in assay [7] it was 0.19 nM.

As to `CC(C)(c1ncc(-c2ccc(Cl)cc2)o1)N1CCN(C[C@@H](O)C[C@@H](Cc2nnc(-c3ccccc3)o2)C(=O)N[C@H]2CCOC[C@H]2O)[C@H](C(=O)NCC(F)(F)F)C1`, the IC95 was not above 8 nM in the assay with MT4 [1]; 16 nM with MT4 [3]; 125 nM in the assay with MT4 [4]; not above 8 nM with MT4 [5]; 16 nM in the assay with MT4 [6]. Moreover, the IC50 was less than 0.01 nM in assay [2] and 0.18 nM in assay [7].

Turning to `Cc1nnc(C[C@H](C[C@H](O)CN2CCN(C(C)(C)c3ncc(-c4ccc(Cl)cc4)o3)C[C@H]2C(=O)NCC(F)(F)F)C(=O)N[C@H]2CCOC[C@H]2O)o1`, the IC95 in the assay on MT4 [1] is 250 nM; with MT4 [3], not above 8 nM; with MT4 [4] it was 63 nM; in the assay on MT4 [5], 31 nM; with MT4 [6], 16 nM. For the same compound, the IC50 in assay [2] came out at 0.01 nM; in assay [7], 0.06 nM.

On to `CC(C)(C)NC(=O)[C@@H]1CN(Cc2cccnc2)CCN1C[C@@H](O)C[C@@H](Cc1ccccc1)C(=O)N[C@H]1c2ccccc2C[C@H]1O`, for which the IC95 with MT4 [1] is 50 nM; with MT4 [3] it was more than 1000 nM; with MT4 [4], more than 1000 nM; in the assay with MT4 [5], more than 1000 nM; with MT4 [6], 400 nM.

Consider `CCCc1nnc(C[C@H](C[C@H](O)CN2CCN(C(C)(C)c3ncc(-c4ccc(Cl)cc4)o3)C[C@H]2C(=O)NCC(F)(F)F)C(=O)N[C@H]2CCOC[C@H]2O)o1`, for which the IC95 in the assay with MT4 [1] is not above 8 nM; in the assay with MT4 [3], not above 8 nM; in the assay on MT4 [4], 63 nM; in the assay with MT4 [5], 16 nM; in the assay on MT4 [6] it was not above 8 nM. The IC50 in assay [2] was less than 0.01 nM; in assay [7] it was 0.18 nM.

On to `COc1cncc(-c2cnc(C(C)(C)N3CCN(C[C@@H](O)C[C@@H](Cc4nnc(C)o4)C(=O)N[C@H]4CCOC[C@H]4O)[C@H](C(=O)NCC(F)(F)F)C3)o2)c1`, for which the IC95 in the assay on MT4 [1], with MT4 [3], in the assay on MT4 [4], with MT4 [5] and in the assay with MT4 [6] was more than 1000 nM in each case. Also, the IC50 in assay [2] amounted to 0.4 nM; in assay [7] it was 15 nM.

Consider `COc1cncc(-c2cnc(C(C)(C)N3CCN(C[C@@H](O)C[C@@H](Cc4nnc(-c5ccccc5)o4)C(=O)N[C@H]4CCOC[C@H]4O)[C@H](C(=O)NCC(F)(F)F)C3)o2)c1`, for which the IC95 was 125 nM with MT4 [1]; 500 nM with MT4 [3]; less than 1000 nM in the assay with MT4 [4]; 250 nM in the assay on MT4 [5]; 250 nM in the assay on MT4 [6]. Also, inhibition in assay [2] was half-maximal at 0.48 nM (IC50).

In the case of `O=C(N[C@H]1CCOC[C@H]1O)[C@H](Cc1nnco1)C[C@H](O)CN1CCN(Cc2ccc(-c3ccc(Cl)cc3)o2)C[C@H]1C(=O)NCC(F)(F)F`, the IC95 with MT4 [1] came to 63 nM; in the assay with MT4 [3], 31 nM; in the assay on MT4 [4] it was 125 nM; in the assay with MT4 [5], 63 nM; in the assay on MT4 [6] it was 31 nM. Moreover, the IC50 in assay [2] was 0.01 nM; in assay [7], 0.09 nM.

For the compound `CCCc1nnc(C[C@H](C[C@H](O)CN2CCN(C(C)(C)c3ncc(-c4ccc(F)cc4)o3)C[C@H]2C(=O)NCC(F)(F)F)C(=O)N[C@H]2CCOC[C@H]2O)o1`, the IC95 with MT4 [1] is 16 nM; in the assay on MT4 [3], not above 8 nM; in the assay with MT4 [4], 63 nM; in the assay on MT4 [5] it was 16 nM; in the assay on MT4 [6], 16 nM. Further, the figures for the IC50 in assay [2] and in assay [7] were 0.01 nM and 0.19 nM, respectively.

On to `Cc1nnc(C[C@H](C[C@H](O)CN2CCN(Cc3ccc(-c4ccc(Cl)cc4)o3)C[C@H]2C(=O)NCC(F)(F)F)C(=O)N[C@H]2CCOC[C@H]2O)o1`, for which the IC95 in the assay with MT4 [1] is not above 63 nM; with MT4 [3], 31 nM; in the assay on MT4 [4] it was 63 nM; in the assay on MT4 [5], 31 nM; with MT4 [6], 31 nM. The same compound displayed a concentration for half-maximal inhibition (IC50) in assay [2] of less than 0.01 nM.
